Results published in patent US20230295152A1 (SENDA BIOSCIENCES, INC., priority 2019, published 2023).

How the values were obtained:
Assay type in all cases: in vitro ADME
[1] = Plasma Protein Binding with Ultracentrifugation Method, rat; conditions: for fraction unbound at 30 min, 1 μM: rat plasma, read-out: Rat plasma protein binding (% bound); for fraction unbound at 5.5 h, 1 μM: rat, plasma, read-out: Plasma Protein Binding PPB (r) % (converted)
Method: The frozen plasma (stored at −80° C.) was thawed in a 37° C. water bath, followed by centrifugation at 3,220 g for 10 minutes to remove clots. The supernatant was removed into a new tube as the spun plasma. The spun plasma was pre-warmed in a 37° C. water bath for 10 minutes. The stock solutions of test compounds were diluted to 200 μM in DMSO, and then spiked into the plasma. Duplicate samples were prepared. The final concentration of compound was 1.0 μM. The final concentration of organic solvent was 0.5%. Warfarin was used as positive control in the assay. 1.0 mL of the spiked plasma was transferred to a new balance ultracentrifuge tube. Samples were incubated at 37° C., 5% CO2 for 30 minutes. After incubation, the balance ultracentrifuge tubes were centrifuged at 600,000 g for 5.5 hours at 37° C. After centrifugation, 50 μL solution was removed from the center of the ultracentrifuge tubes as the post-ultracentrifugation samples, followed by the addition of 50 μL blank plasma and 400 μL quench solution (acetonitrile containing internal standards (IS, 100 nM Alprazolam, 500 nM Labetalol and 2 μM Ketoprofen)) to precipitate protein and release compounds. Samples were vortexed for 2 minutes, followed by centrifugation at 20,000 g for 15 minutes at room temperature. The supernatant was diluted with ultrapure water and then used for LC-MS/MS analysis. Stability samples was prepared by transferring 50 μL of the spiked plasma to 0.6 mL tubes and incubated at 37° C., 5% CO2 for 0.5 and 6 hours. After incubation, 50 μL PBS (100 mM, pH7.4) and 400 μL quench solution were added to the stability samples. And then stability samples were treated the same way as the post-ultracentrifugation samples. The supernatant was diluted with ultrapure water and then used for LC-MS/MS analysis. 0.5 hour time point samples were also used as no-spun controls. Time 0 samples were prepared by transferring 50 μL spiked plasma to 0.6 mL tubes containing 50 μL PBS, followed by the addition of 400 μL quench solution to precipitate protein and release compound. And then these samples were treated the same way as the post-ultracentrifugation samples. The supernatant was diluted with ultrapure water and then used for LC-MS/MS analysis.
(§1) Data Analysis: All calculations were carried out using Microsoft Excel. The concentrations of test compound in plasma samples and post-ultracentrifugation plasma was determined from peak areas. The percentages of test compound bound was calculated as follows: […]
“+++” indicates a % bound value less than 50, “++” indicates a % bound value between 50 and 75, and “+” indicates a % bound value above 75.

CYP = CYP Inhibition (in vitro DMPK profile, Table 52)
Method: Example 11: CYP Inhibition Assay
(§2) Stock solutions of test compounds were prepared in DMSO at the concentrations of 10 mM. Stock solution was diluted to 2 mM with acetonitrile. The final concentration of test compounds was 10 μM. For the stock solution preparation, if the positive control could not be well dissolved in the mixture of DMSO and acetonitrile (1:4) at the highest concentration, another mixture of acetonitrile and DMSO, the mixture of acetonitrile and H2O or DMSO will be used to dissolve the compound.
(§3) Data Analysis: The automatic peak integration areas are checked for all the samples. The Analyte Peak Area and Internal Standard Peak Area are exported into excel spreadsheet. The inhibition of each P450 enzyme in human liver microsomes is measured as the percentage decrease in the activity of marker metabolite formation compared to non-inhibited controls (=100% activity).

CYP3A4 = target: T1, CYP3A4 (Homo sapiens, UniProt P08684); test: CYP Inhibition Assay in human liver microsomes, CYP3A4; conditions: pH 7.4
T1 construct: from tissue; host or cells: human liver microsomes (HLM)
Method: as §2
The substrate solutions are stored in a −20° C. freezer and warmed to room temperature prior to use.
Preparation of Phosphate Buffer (100 mmol/L, pH 7.4): To prepare the Solution A, 7.098 g of disodium hydrogen phosphate were weighed out and added into 500 mL of pure water, then sonicated to dissolve the content. To prepare the Solution B, 3.400 g of potassium dihydrogen phosphate were weighed out and added into 250 mL of pure water, then sonicated to dissolve the content. Solution A was placed on a stirrer and slowly Solution B was added into Solution A until the pH reached 7.4. Preparation of 10 mmol/L NADPH Solution: NADPH was dissolved at 8.334 mg/mL in phosphate buffer; the solution was freshly prepared prior to use.
The master solution was prepared according to Table 45. The incubation was carried out in 96 deep well plates. The following volumes were dispensed into each well of the incubation plate: 179 μL of the substrate and HLM mixture in phosphate buffer, 1 μL of the compound working solution, or vehicle (mixture of DMSO and acetonitrile (1:4)). The incubation plate was placed into the water bath and pre-warmed at 37° C. for 15 minutes before the reactions was started by the addition of 20 μL of 10 mmol/L NADPH solution in phosphate buffer. After the addition of NADPH, the incubation plate was incubated at 37° C. for corresponding time. The assay was performed in duplicate.
The reaction was quenched by the addition of 1.5 volume (300 μL) of cold acetonitrile containing 3% formic acid and internal standards (200 nM Labetalol, 200 nM Alprazolam and 200 nM tolbutamide). The plate was centrifuged at 3,220 g for 40 minutes. 100 μL of the supernatant was transferred to a new plate. The supernatant was diluted with 100 μL pure water. The samples were mixed well and analyzed using UPLC/MS/MS.
as §3
The percentage of remaining activity was calculated as follows: […]

[2] = Plasma Protein Binding, monkey; conditions: read-out: Plasma Protein Binding PPB (mon) % (converted)
Method: (§4) Example 10: Plasma Protein Binding Determination with Ultracentrifugation Method
(§5) The frozen plasma (stored at −80° C.) was thawed in a 37° C. water bath, followed by centrifugation at 3,220 g for 10 minutes to remove clots. The supernatant was removed into a new tube as the spun plasma. The spun plasma was pre-warmed in a 37° C. water bath for 10 minutes. The stock solutions of test compounds were diluted to 200 μM in DMSO, and then spiked into the plasma. Duplicate samples were prepared. The final concentration of compound was 1.0 μM. The final concentration of organic solvent was 0.5%. Warfarin was used as positive control in the assay. 1.0 mL of the spiked plasma was transferred to a new balance ultracentrifuge tube. Samples were incubated at 37° C., 5% CO2 for 30 minutes. After incubation, the balance ultracentrifuge tubes were centrifuged at 600,000 g for 5.5 hours at 37° C. […]
as §1

[3] = Plasma Protein Binding, dog; conditions: read-out: Plasma Protein Binding PPB (d) % (converted)
Method: as §4, §5, §1

[4] = Suspension Monkey heps ClInt; conditions: @1 and 0.1 mM
From the text: Compound Nos. 9 and 46 have the following in vitro DMPK profiles.

T1 sequence (P08684 whole entry): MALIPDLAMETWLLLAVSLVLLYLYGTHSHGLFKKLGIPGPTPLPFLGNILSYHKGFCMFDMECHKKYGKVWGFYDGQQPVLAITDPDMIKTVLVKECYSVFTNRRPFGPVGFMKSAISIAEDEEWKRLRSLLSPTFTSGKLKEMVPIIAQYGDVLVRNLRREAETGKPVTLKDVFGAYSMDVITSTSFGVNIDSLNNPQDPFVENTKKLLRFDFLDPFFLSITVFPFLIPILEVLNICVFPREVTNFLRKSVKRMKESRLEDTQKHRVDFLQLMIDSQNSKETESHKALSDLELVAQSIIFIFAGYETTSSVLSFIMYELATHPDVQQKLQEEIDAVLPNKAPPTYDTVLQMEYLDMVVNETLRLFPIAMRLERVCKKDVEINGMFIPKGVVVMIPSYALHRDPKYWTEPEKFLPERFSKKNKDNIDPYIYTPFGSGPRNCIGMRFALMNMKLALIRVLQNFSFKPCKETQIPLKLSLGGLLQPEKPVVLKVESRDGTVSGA

Row | Structure (SMILES) | fraction unbound at 30 min, 1 μM [1] | fraction unbound at 5.5 h, 1 μM [1] | CYP Inhibition (CYP) | inhibition at 10 µM (CYP3A4) | fraction unbound at 5.5 h, 1 μM [2] | fraction unbound at 5.5 h, 1 μM [3] | Suspension Monkey heps ClInt (% Qh) [4]
1 | C[C@@H](CO)n1cnc2c(-c3cccnc3)nc(-c3ccc(C(F)(F)F)cn3)cc2c1=O [Compound 46, (S)-3-(1-hydroxypropan-2-yl)-8-(pyridin-3-yl)-6-(5-(trifluoromethyl)pyridin-2-yl)pyrido[3,4-d]pyrimidin-4(3H)-one] | < 0.25 | 0.102 | Negative | 2.26% | 0.113 | 0.11 | <24 (@1 and % Qh
2 | CC(C)(O)Cn1cnc2c(-c3cccnc3)nc(-c3ccc(C(F)(F)F)nc3)cc2c1=O [Compound 9] | < 0.25 | 0.098 | Negative | – | 0.149 | 0.124 | <24 (@1 and % Qh
3 | CC(C)(O)Cn1cnc2c(-c3cccnc3)nc(-c3ccc(Cl)cc3)cc2c1=O [Compound 18] | – | – | – | 35.2% | – | – | –
4 | C[C@H](n1cnc2c(-c3cnn(C)c3)nc(-c3ccc(Cl)cc3)cc2c1=O)C(C)(C)O [Compound 30] | < 0.25 | – | – | 12.2% | – | – | –
5 | O=c1c2cc(-c3ccc(Cl)cc3)nc(-c3cccnc3)c2ncn1[C@H]1COC[C@@H]1O [Compound 125, 6-(4-chlorophenyl)-3-((3S,4R)-4-hydroxytetrahydrofuran-3-yl)-8-(pyridin-3-yl)pyrido[3,4-d]pyrimidin-4(3H)-one] | – | – | – | 23.8% | – | – | –
6 | C[C@@H](CO)n1cnc2c(-c3cccc(F)c3)nc(-c3ccc(Cl)cc3)cc2c1=O [Compound 7] | < 0.25 | – | – | – | – | – | –
